Data published in US20110212235A1, “ANTIMICROBIAL SALT SOLUTIONS FOR CHEESE PROCESSING APPLICATIONS” (priority 2006, published 2011).
Marks after values point to notes of the source that are not given here.

Tests used:
Assay type in all cases: cell-based
[1] = tested on: L. monocytogenes; assay: L. monocytogenes cocktail challenge of surfactant/salt solutions at 2° C.; details: after 4 hours in solution at 2° C.
Protocol: Tests were generally run according to the following procedure:
(§1) 1. Inoculate a separate tube containing approximately 10 ml of Brain Heart infusion (BHI) broth with the following L. monocytogenes strains: H2446 (CDC Global Standard), Scott A (serotype 4b), 12243 (serotype 1/2a), and two strains isolated from the environment of a cooked meat and poultry facility, designated WP1, and WP4. Incubate the tubes at least 5 days at 7-10° C.+/−2° C. 2. Assume the growth to be 10^9 cfu/ml. Serially dilute each culture in cold (˜7° C.). Butterfield's Phosphate Buffered Water (PBW) to 10^8 cfu/ml (1:10). Since five cultures of L. monocytogenes are being used as a cocktail, begin the dilution series using 2.20 ml of each culture added to 99 ml of PBW. 3. Plate (−6, −7, −8) the diluted culture to get the starting count of the inoculum on Modified Oxford medium (MOX) using a thin agar overlay (TAL) technique (overlay with Trypticase Soy Agar [TSA]) to revive injured cells. 4. Add 1 ml of the diluted cocktail to 100 ml of cold test solution. 5. Mix the solutions well. 6. Determine the L. monocytogenes population at time 0 and 4 hours. Plate −1 (0.1 ml on 1 plate), −2, −3, and −4 dilutions using spread plates on MOX TAL with TSA. 7. Incubate the test solutions at test temperature for the duration of the experiment. 8. Incubate the MOX TAL with TSA plates at 20° C.+/−2° C. for 72+/−3 hours. Count representative colonies, which are black, and multiply by the dilution factor.

[2] = tested on: L. monocytogenes; assay: L. monocytogenes challenge in beef plant chill brine at 4° C.; details: after 4 hours at 4° C.; surfactant added to beef plant brine, approximately 17% sodium chloride
Protocol: as §1
Several tests were carried out to determine the effectiveness of embodiments according to the invention in meat processing chill brines. In one experiment, brine was taken at the end of a production week from a brine chiller used in a ready to eat, cooked beef production line. The sodium chloride concentration in this brine was approximately 17%. Samples of the brine with and without added surfactant were inoculated with a cocktail of L. monocytogenes as per the procedure described above, incubated at 4° C. for four hours, and then plated to determine L. monocytogenes survival.

[3] = tested on: Escherichia coli ATCC 11229; assay: E. coli kill in acid/SLS solutions with and without salt; details: for % Kill of E. Coli: 0.6409 grams malic acid and 0.0107 grams sodium lauryl sulfate per liter, with 107.0 grams of the listed salt or without; for kill of E. coli by solution containing only the salt: only the salt and no other ingredient
Protocol: Ten percent by weight solutions were prepared of a formula of 0.6% citric or malic acid, 100 ppm SLS, and 99.4% sodium chloride. Solutions were also prepared containing an identical concentration of acid and SLS but no sodium chloride. […] A 1.0 ml aliquot of this suspension was added to 100 ml of test solution at room temperature and mixed well, providing an initial inoculum of 10^3 CFU/ml. After 30 minutes, the E. coli populations were enumerated by plating on tryptic soy agar (TSA), making serial dilutions as necessary in BPBW. Plates were incubated at 35° C.+/−2° C. for approximately 24 hours. Colonies were then counted and compared to the initial inoculum counts.
A test was run to determine if salts other than sodium chloride would show a synergistic antimicrobial effect with an acid and sodium lauryl sulfate. Solutions containing 0.6409 grams malic acid and 0.0107 grams sodium lauryl sulfate per liter were prepared with and without 107.0 grams of various salts (added on an anhydrous basis). Solutions were inoculated with E. coli described above and the amount of bacterial kill was measured to determine if the added salt caused an increase in the effectiveness of the acid/surfactant active ingredients.

[4] = tested on: L. monocytogenes; assay: L. monocytogenes kill in cold salt/acid/surfactant solutions; details: for Population at 4 hours: concentrations stated in the solution, no added acid, average of two runs where starred; for L. monocytogenes, Time 4 Hours / L. monocytogenes, Time 0: cold
Protocol: To study chilling brine application of the current embodiment, tests were run on 17% by weight solutions of formulas consisting of between 0.3% and 6.0% citric acid, between 50 and 500 ppm SLS, and between 94% and 99.7% sodium chloride. Test solutions were cooled to −7° C. and inoculated with several strains of L. monocytogenes.
An experiment was run to determine if solutions containing sodium chloride, sodium lauryl sulfate, and various acids would kill L. monocytogenes at cold temperatures. […] A 1.0 ml aliquot of this suspension was added to 100 ml of cold (−7° C.+2° C.) test solution and mixed well, providing an initial inoculum of 10^3 CFU/ml. The test solutions were incubated at −7° C.+/−2° C. for the duration of the experiment. At intervals of 0, 4, and 24 hours the L. monocytogenes populations in the test solutions were determined on Modified Oxford agar (MOX). MOX plates were incubated at 35° C.+/−2° C. for approximately 48 hours. Colonies were then counted and compared to the initial inoculum counts.
Each test solution was a 17% by weight solution of the listed formula prepared in soft water.
In another experiment, 17% by weight solutions of formulas containing various levels of sodium chloride, citric acid, and sodium lauryl sulfate were tested for effectiveness in killing L. monocytogenes at cold temperatures. The same test procedure was used as described above, except test solutions were plated on MOX with a Thin Agar Overlay of TSA (to aid in the recovery of injured cells).
In another experiment, two sets of solutions were tested. The first set (samples 1-12 in Table 10 below) was prepared in hard tap water and contained about 17.0% by mass of the formulation. These samples were inoculated with 10^3 CFU/ml L. monocytogenes by the same procedure as described above. A second set of samples was prepared from brine taken from a ready-to-eat meat processing operation. The recirculated brine had been used to chill packaged meat for one week. After a week of use the brine typically contains various types of aerobic psychotropic and mesophilic bacteria. This experiment was done in order to determine if the additives would kill the microorganisms naturally occurring in actual process brine from a plant. Since the spent chill brine samples already contained NaCl citric acid and/or SLS was added to provide an effective concentration of additive. One set of these samples (samples 13-17) were inoculated with 10^3 L. monocytogenes and the other set (samples 18-22) contained only the naturally occurring organisms in the spent chill brine. […] Other antimicrobials, such as quaternary ammonium compounds can lose significant activity in hard water, often necessitating further additives, such as EDTA as a chelating agent, to maintain antimicrobial activity.
Another set of experiments was done in order to determine the effectiveness of different acids and different types of surfactants in the antimicrobial salt formulations. In one experiment, test solutions containing ˜17% by weight of formulas containing various levels of sodium chloride, 100 ppm sodium lauryl sulfate, and various levels of different acids were tested for effectiveness in killing L. monocytogenes at cold temperatures. The same test procedure was used as described above (test solutions were plated on MOX TAL (Modified Oxford Medium with a Thin Agar Layer) with TSA). The controls were a solution of pure NaCl, a solution of a blend of 100 ppm SLS in NaCl, and a solution of a blend of 0.5% citric acid, 100 ppm SLS, and 99.5% NaCl.

[5] = 17% by weight of formula of 99.7% sodium chloride, 0.3% citric acid, 500 ppm of listed surfactant
[6] = Table 2, different salts and salt concentrations

With “nonylphenol ethoxylate [50 ppm nonylphenol ethoxylate]” the L. mono count ([1]; Table 1) was 1.3 × 10^5 cfu/mL and the L. mono count [2] was under 10 cfu/mL.
In the case of [Cl-].[K+] [Potassium chloride], the “% Kill of E. Coli” value [3] was 18% and the “kill of E. coli by solution containing only the salt” value [3] was “no bacterial kill”.
With CCCCCCCCCCCCOS(=O)(=O)[O-].[Na+] [50 ppm SLS (no NaCl), sodium lauryl sulfate] the “Population at 4 hours” value [4] was 3.90* log cfu/mL.
alpha-olefin sulfonate was tested, and the “L. monocytogenes, Time 4 Hours” value [4, 5] was 0 CFU/ml and the “L. monocytogenes, Time 0” value [4, 5] was 370 CFU/ml.
sodium xylene sulfonate was tested, and the “L. monocytogenes, Time 4 Hours” value [4, 5] was 820 CFU/ml and the “L. monocytogenes, Time 0” value [4, 5] was 910 CFU/ml.
For O=C[O-].[Na+] [20% Sodium Formate, Sodium Formate, reference compound], the L. mono count [1, 6] was 3.6 × 10^5 cfu/mL.
In the case of “sodium olefin sulfonate [50 ppm sodium olefin sulfonate]”, the L. mono count [1, 6] was 1.8 × 10^5 cfu/mL and the L. mono count [2] was 10 cfu/mL.
For CC(=O)[O-].[Na+] [20% Sodium Acetate, Sodium Acetate, reference compound], the L. mono count [1, 6] was 3.0 × 10^4 cfu/mL.
With alkylpolyglucoside the “L. monocytogenes, Time 4 Hours” value [4, 5] was 0 CFU/ml and the “L. monocytogenes, Time 0” value [4, 5] was 280 CFU/ml.
With “fatty alkanolaminde [25 ppm fatty alkanolaminde]” the L. mono count [2] was under 10 cfu/mL.
For sodium linear alkyl-benzene sulfonate, the “L. monocytogenes, Time 4 Hours” value [4, 5] was 0 CFU/ml and the “L. monocytogenes, Time 0” value [4, 5] was 490 CFU/ml.
For [Cl-].[Na+] [Salt control, reference compound], the “L. monocytogenes, Time 4 Hours” value ([4]; ˜17% solution of NaCl, 100 ppm SLS and listed acid to pH ˜3.6) was 1380 CFU/ml and the “L. monocytogenes, Time 0” value ([4]; ˜17% solution of NaCl, 100 ppm SLS and listed acid to pH ˜3.6, MOX TAL) was 850 CFU/ml.
For dodecyl diphenyl oxide disulfonate, the “L. monocytogenes, Time 4 Hours” value [4, 5] was 0 CFU/ml and the “L. monocytogenes, Time 0” value [4, 5] was 0 CFU/ml.
In the case of [Cl-].[Cl-].[Mg+2] [Magnesium chloride], the “% Kill of E. Coli” value [3] was 56% and the “kill of E. coli by solution containing only the salt” value [3] was 61%.
With sodium linear alkylbenzene sulfonate the L. mono count ([1]; Table 1) was 5.9 × 10^3 cfu/mL and the L. mono count [2] was under 10 cfu/mL.
For [Cl-].[Na+] [20% NaCl (control), sodium chloride, reference compound], the L. mono count ([1]; Table 1) was 1.0 × 10^5 cfu/mL, the L. mono count [1, 6] was 4.0 × 10^5 cfu/mL and the “Population at 4 hours” value [4] was 4.32 log cfu/mL.
In the case of “sodium olefin sulfonate [12.5 ppm sodium olefin sulfonate]”, the L. mono count [2] was 110 cfu/mL.
With O=S(=O)([O-])[O-].[Na+].[Na+] [Sodium sulfate] the “% Kill of E. Coli” value [3] was 87% and the “kill of E. coli by solution containing only the salt” value [3] was “no bacterial kill”.
For “lauramine oxide [50 ppm lauramine oxide]”, the L. mono count ([1]; Table 1) was 3.6 × 10^3 cfu/mL, the L. mono count [1, 6] was 5.8 × 10^4 cfu/mL and the L. mono count [2] was under 10 cfu/mL.
In the case of “sodium linear alkylbenzene [25 ppm sodium linear alkylbenzene]”, the L. mono count [2] was under 10 cfu/mL.
Work on “fatty alkanolaminde [12.5 ppm fatty alkanolaminde]” yielded a L. mono count [2] of 40 cfu/mL.
For “C12(branched) sodium diphenyl oxide disulfonate”, the L. mono count [1, 6] was 3.1 × 10^4 cfu/mL.
With lauramine oxide the “L. monocytogenes, Time 4 Hours” value [4, 5] was 0 CFU/ml and the “L. monocytogenes, Time 0” value [4, 5] was 2 CFU/ml.
“sodium olefin sulfonate [25 ppm sodium olefin sulfonate]” gave a L. mono count [2] of 60 cfu/mL.
For [Cl-].[Na+] [sodium chloride, reference compound], the “% Kill of E. Coli” value [3] was 78%, the “kill of the test microorganisms” value ([3]; 10% solution of pure sodium chloride) was “does not provide any significant kill” and the “log reduction of the L. monocytogenes over a 24-hour period” value ([4]; brine of sodium chloride alone, 24-hour period) was under 1 log.
In the case of “alkyl polyglucoside [50 ppm alkyl polyglucoside]”, the L. mono count ([1]; Table 1) was 9.6 × 10^4 cfu/mL.
“nonylphenol ethoxylate [12.5 ppm nonylphenol ethoxylate]” gave a L. mono count [2] of 20 cfu/mL.
For nonylphenol ethoxylate, the “L. monocytogenes, Time 4 Hours” value [4, 5] was 0 CFU/ml and the “L. monocytogenes, Time 0” value [4, 5] was 460 CFU/ml.
For O=S(=O)([O-])[O-].[Mg+2] [Magnesium sulfate], the “% Kill of E. Coli” value [3] was 93% and the “kill of E. coli by solution containing only the salt” value [3] was 10%.
With CC(=O)[O-].[K+] [20% Potassium Acetate, Potassium Acetate, reference compound] the L. mono count [1, 6] was 4.2 × 10^5 cfu/mL.
“nonylphenol ethoxylate [25 ppm nonylphenol ethoxylate]” showed a L. mono count [2] of under 10 cfu/mL.
With sodium salt of sulfonated oleic acid the “L. monocytogenes, Time 4 Hours” value [4, 5] was 0 CFU/ml and the “L. monocytogenes, Time 0” value [4, 5] was 240 CFU/ml.
“polyoxyethylene-polyoxypropylene block polymer” was tested, and the “L. monocytogenes, Time 4 Hours” value [4, 5] was 610 CFU/ml and the “L. monocytogenes, Time 0” value [4, 5] was 820 CFU/ml.
With “sulfonated oleic acid, Na salt [50 ppm sulfonated oleic acid, Na salt]” the L. mono count ([1]; Table 1) was 1.3 × 10^5 cfu/mL.
In the case of [Ca+2].[Cl-].[Cl-] [Calcium chloride], the “% Kill of E. Coli” value [3] was 55% and the “kill of E. coli by solution containing only the salt” value [3] was 26%.
In the case of O=S(=O)([O-])[O-].[K+].[K+] [Potassium sulfate], the “% Kill of E. Coli” value [3] was 34% and the “kill of E. coli by solution containing only the salt” value [3] was “no bacterial kill”.
With fatty alkanolamide the “L. monocytogenes, Time 4 Hours” value [4, 5] was 0 CFU/ml and the “L. monocytogenes, Time 0” value [4, 5] was 470 CFU/ml.
